# Assay results: PubChem BioAssay AID256 (DTP/NCI, 2004)
# Values joined by “and” are separate entries in the source; they are usually repeats but may differ in a detail not shown here. Equal entries are not always repeated. Inconclusive results and toxic doses are left out.
# Tested on: CD2F1 mice, L1210 leukemia ip, survival T/C
# Assay: NCI In Vivo Anticancer Drug Screen. Data for tumor model L1210 Leukemia (intraperitoneal) in CD2F1 (CDF1) mice
# Details: higher = longer survival
# Method in brief: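 Each value reflects a quotient of treated over vehicle control outcomes in mice with a transplanted tumor.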
# [1] = endpoint: mean survival time, dose: 50.0 mg/kg/injection, schedule: Q04DX003 (ip), vehicle: Klucel (hydroxypropylcellulose) (HPC)
# [2] = endpoint: mean survival time, dose: 100.0 mg/kg/injection, schedule: Q04DX003 (ip), vehicle: Klucel (hydroxypropylcellulose) (HPC)
# [3] = endpoint: mean survival time, dose: 12.5 mg/kg/injection, schedule: Q01DX009 (ip), vehicle: saline with Tween-80
# [4] = endpoint: mean survival time, dose: 100.0 mg/kg/injection, schedule: Q01DX009 (ip), vehicle: saline with Tween-80
# [5] = endpoint: mean survival time, dose: 200.0 mg/kg/injection, schedule: Q01DX009 (ip), vehicle: saline with Tween-80
# [6] = endpoint: mean survival time, dose: 400.0 mg/kg/injection, schedule: Q01DX009 (ip), vehicle: saline with Tween-80
# [7] = endpoint: mean survival time, dose: 25.0 mg/kg/injection, schedule: Q01DX009 (ip), vehicle: saline with Tween-80
# [8] = endpoint: mean survival time, dose: 50.0 mg/kg/injection, schedule: Q01DX009 (ip), vehicle: saline with Tween-80
# [9] = endpoint: mean survival time, dose: 200.0 mg/kg/injection, schedule: Q04DX003 (ip), vehicle: Klucel (hydroxypropylcellulose) (HPC)
# [10] = endpoint: mean survival time, dose: 12.5 mg/kg/injection, schedule: Q01DX009 (ip), vehicle: saline
# [11] = endpoint: mean survival time, dose: 25.0 mg/kg/injection, schedule: Q01DX009 (ip), vehicle: saline
# [12] = endpoint: mean survival time, dose: 100.0 mg/kg/injection, schedule: Q04DX003 (ip), vehicle: saline with Tween-80
# [13] = endpoint: mean survival time, dose: 200.0 mg/kg/injection, schedule: Q04DX003 (ip), vehicle: saline with Tween-80
# [14] = endpoint: mean survival time, dose: 400.0 mg/kg/injection, schedule: Q04DX003 (ip), vehicle: saline with Tween-80
# [15] = endpoint: mean survival time, dose: 100.0 mg/kg/injection, schedule: Q01DX001 (ip), vehicle: saline with Tween-80
# [16] = endpoint: mean survival time, dose: 200.0 mg/kg/injection, schedule: Q01DX001 (ip), vehicle: saline with Tween-80
# [17] = endpoint: mean survival time, dose: 400.0 mg/kg/injection, schedule: Q01DX001 (ip), vehicle: saline with Tween-80
# [18] = endpoint: mean survival time, dose: 50.0 mg/kg/injection, schedule: Q01DX009 (ip), vehicle: saline
# [19] = endpoint: mean survival time, dose: 50.0 mg/kg/injection, schedule: Q01DX009 (ip), vehicle: Klucel (hydroxypropylcellulose) (HPC)
smiles,measurement,setting,value
CSc1nc(NC2OCC(O)C(O)C2O)c(Br)c(=O)n1C (stereo not drawn),T/C,"endpoint: median survival time, dose: 12.5 mg/kg/injection, schedule: Q01DX005 (ip), vehicle: saline with Tween-80",98 % of control
same,T/C,"endpoint: median survival time, dose: 25.0 mg/kg/injection, schedule: Q01DX005 (ip), vehicle: saline with Tween-80",100 % of control
same,T/C,"endpoint: median survival time, dose: 50.0 mg/kg/injection, schedule: Q01DX005 (ip), vehicle: saline with Tween-80",101 % of control
same,T/C,"endpoint: median survival time, dose: 100.0 mg/kg/injection, schedule: Q01DX005 (ip), vehicle: saline with Tween-80",102 % of control
same,T/C,"endpoint: median survival time, dose: 200.0 mg/kg/injection, schedule: Q01DX005 (ip), vehicle: saline with Tween-80",98 % of control
O=C(O)CSc1cc(Cl)ccc1Cl,T/C,"endpoint: mean survival time, dose: 12.5 mg/kg/injection, schedule: Q04DX003 (ip), vehicle: Klucel (hydroxypropylcellulose) (HPC)",95 % of control
same,T/C,"endpoint: mean survival time, dose: 25.0 mg/kg/injection, schedule: Q04DX003 (ip), vehicle: Klucel (hydroxypropylcellulose) (HPC)",98 % of control
same,T/C,[1],100 % of control
same,T/C,[2],100 % of control
O=C1/C(=N/O)Cc2ccccc21,T/C,[3],97 % of control
CCOc1ccc(OCC)c(NC(=O)c2ccccc2)c1,T/C,[4],98 % of control
same,T/C,[5],107 % of control
same,T/C,[6],100 % of control
CCC(CNCCCCCC(=O)O)(C(=O)O)C(=O)O,T/C,"endpoint: mean survival time, dose: 12.5 mg/kg/injection, schedule: Q04DX002 (ip), vehicle: saline with Tween-80",90 % of control
same,T/C,"endpoint: mean survival time, dose: 25.0 mg/kg/injection, schedule: Q04DX002 (ip), vehicle: saline with Tween-80",98 % of control
same,T/C,"endpoint: mean survival time, dose: 50.0 mg/kg/injection, schedule: Q04DX002 (ip), vehicle: saline with Tween-80",94 % of control
CCCCCCCCCCCCN1CCCC(O)C1 (stereo not drawn),T/C,[7],116 % of control
same,T/C,[8],92 % of control and 105 % of control
same,T/C,[4],105 % of control and 111 % of control
CC(=O)Nc1c(N=Cc2ccc([N+](=O)[O-])cc2)cc2c3c(cccc13)CC2,T/C,[1],91 % of control
same,T/C,[2],96 % of control
same,T/C,[9],94 % of control
CC(C)(C)N=C=N[N+](C)(C)Cc1ccccc1,T/C,"endpoint: mean survival time, dose: 6.25 mg/kg/injection, schedule: Q01DX009 (ip), vehicle: saline",95 % of control
same,T/C,[10],98 % of control
same,T/C,[11],111 % of control
CN(C)CCOc1ccc2c(c1)C/C(=C/c1ncc([N+](=O)[O-])n1C)C2=O,T/C,"endpoint: mean survival time, dose: 6.25 mg/kg/injection, schedule: Q01DX009 (ip), vehicle: saline with Tween-80",96 % of control and 98 % of control
same,T/C,[3],107 % of control
same,T/C,[7],107 % of control and 108 % of control
same,T/C,[8],117 % of control and 107 % of control
same,T/C,[4],119 % of control and 104 % of control
same,T/C,[5],111 % of control
CCCCCCCCCCCC(CCCCCCCCCC)CCCCCCCCCC,T/C,"endpoint: mean survival time, dose: 100.0 mg/kg/injection, schedule: Q01DX001 (ip), vehicle: saline sonified",101 % of control
same,T/C,"endpoint: mean survival time, dose: 200.0 mg/kg/injection, schedule: Q01DX001 (ip), vehicle: saline sonified",104 % of control
same,T/C,"endpoint: mean survival time, dose: 400.0 mg/kg/injection, schedule: Q01DX001 (ip), vehicle: saline sonified",108 % of control
CCN(CC)Cc1cc(Nc2ncnc3scc(C)c23)ccc1O,T/C,[12],100 % of control
same,T/C,[13],97 % of control
same,T/C,[14],100 % of control
Nc1nc(=O)n(CCCOc2ccccc2NC(=O)c2cccc(S(=O)(=O)F)c2)cc1-c1ccc(Cl)c(Cl)c1,T/C,[15],91 % of control
same,T/C,[16],95 % of control
same,T/C,[17],98 % of control
O=S(=O)(N=C1C(Cl)=C(Cl)C(=NS(=O)(=O)c2ccccc2)C(Cl)=C1Cl)c1ccccc1,T/C,[2],97 % of control
same,T/C,[9],95 % of control
same,T/C,"endpoint: mean survival time, dose: 400.0 mg/kg/injection, schedule: Q04DX003 (ip), vehicle: Klucel (hydroxypropylcellulose) (HPC)",93 % of control
Cc1ccc([PH+](c2ccc(C)cc2)c2ccc(C)cc2)cc1.Cc1ccc([PH+](c2ccc(C)cc2)c2ccc(C)cc2)cc1.[Cl][Hg][Cl],T/C,[18],103 % of control
same,T/C,"endpoint: mean survival time, dose: 100.0 mg/kg/injection, schedule: Q01DX009 (ip), vehicle: saline",95 % of control
same,T/C,"endpoint: mean survival time, dose: 200.0 mg/kg/injection, schedule: Q01DX009 (ip), vehicle: saline",91 % of control
Oc1ccc2ccccc2c1/C=N/N=C/c1c(O)ccc2ccccc12,T/C,"endpoint: mean survival time, dose: 12.5 mg/kg/injection, schedule: Q01DX009 (ip), vehicle: Klucel (hydroxypropylcellulose) (HPC)",100 % of control
same,T/C,"endpoint: mean survival time, dose: 25.0 mg/kg/injection, schedule: Q01DX009 (ip), vehicle: Klucel (hydroxypropylcellulose) (HPC)",96 % of control
same,T/C,[19],104 % of control
Cc1ccc(NC(=O)Oc2ccccc2F)cc1C,T/C,[8],100 % of control
same,T/C,[4],87 % of control
same,T/C,[5],104 % of control
O=C(/C=C/c1ccccc1)NC1CC1,T/C,[15],94 % of control
same,T/C,[16],89 % of control
same,T/C,[17],93 % of control
O=C(NCc1ccco1)C1COc2ccccc2O1 (stereo not drawn),T/C,"endpoint: median survival time, dose: 25.0 mg/kg/injection, schedule: Q01DX009 (ip), vehicle: Klucel (hydroxypropylcellulose) (HPC)",103 % of control
same,T/C,"endpoint: median survival time, dose: 50.0 mg/kg/injection, schedule: Q01DX009 (ip), vehicle: Klucel (hydroxypropylcellulose) (HPC)",101 % of control
same,T/C,"endpoint: median survival time, dose: 100.0 mg/kg/injection, schedule: Q01DX009 (ip), vehicle: Klucel (hydroxypropylcellulose) (HPC)",103 % of control
CC(O)Cc1c(Cc2ccccc2)nc(-c2ccccc2)[nH]c1=O (stereo not drawn),T/C,[8],91 % of control
same,T/C,[4],90 % of control
same,T/C,[12],95 % of control
same,T/C,[13],90 % of control
same,T/C,[14],88 % of control
CS(=O)(=O)OCCN(CCOS(C)(=O)=O)c1cccc(Cl)c1,T/C,"endpoint: mean survival time, dose: 2.0 mg/kg/injection, schedule: Q01DX010 (ip), vehicle: saline",112 % of control
same,T/C,"endpoint: mean survival time, dose: 4.0 mg/kg/injection, schedule: Q01DX010 (ip), vehicle: saline",112 % of control
same,T/C,"endpoint: mean survival time, dose: 4.0 mg/kg/injection, schedule: Q01DX015 (ip), vehicle: saline",116 % of control
same,T/C,"endpoint: mean survival time, dose: 8.0 mg/kg/injection, schedule: Q01DX010 (ip), vehicle: saline",150 % of control
same,T/C,"endpoint: mean survival time, dose: 8.0 mg/kg/injection, schedule: Q01DX015 (ip), vehicle: saline",119 % of control
Cn1c(CC(O)(C(F)(F)F)C(F)(F)F)cc2ccccc21,T/C,"endpoint: mean survival time, dose: 100.0 mg/kg/injection, schedule: Q01DX001 (ip), vehicle: other",106 % of control
same,T/C,"endpoint: mean survival time, dose: 200.0 mg/kg/injection, schedule: Q01DX001 (ip), vehicle: other",92 % of control
same,T/C,"endpoint: mean survival time, dose: 400.0 mg/kg/injection, schedule: Q01DX001 (ip), vehicle: other",95 % of control
O=C(O)CCCCSc1ncnc2nc[nH]c12,T/C,[4],90 % of control
same,T/C,[5],95 % of control
same,T/C,[6],102 % of control
Cc1cc(=O)n(C)c2c(C)cccc12,T/C,[4],98 % of control
same,T/C,[5],92 % of control
same,T/C,[6],95 % of control
CCN1c2ccccc2Sc2cc(C=O)ccc21,T/C,[19],97 % of control
same,T/C,"endpoint: mean survival time, dose: 100.0 mg/kg/injection, schedule: Q01DX009 (ip), vehicle: Klucel (hydroxypropylcellulose) (HPC)",108 % of control
CCCCOS(=O)(=O)c1ccc(Cl)c([N+](=O)[O-])c1,T/C,[7],102 % of control
same,T/C,[8],100 % of control
same,T/C,[4],91 % of control
same,T/C,[12],96 % of control
same,T/C,[13],98 % of control
same,T/C,[14],91 % of control
CC(=O)OC1CCC2(C)C(=CCC3C2CCC2(C)C3CC3OC4(CCC(C)CO4)C(C)C32)C1 (stereo not drawn),T/C,"endpoint: mean survival time, dose: 100.0 mg/kg/injection, schedule: Q04DX003 (ip), vehicle: other",95 % of control
same,T/C,"endpoint: mean survival time, dose: 200.0 mg/kg/injection, schedule: Q04DX003 (ip), vehicle: other",94 % of control
same,T/C,"endpoint: mean survival time, dose: 400.0 mg/kg/injection, schedule: Q04DX003 (ip), vehicle: other",94 % of control
Cc1cccc(N)n1 (tested in a mixture with another compound),T/C,[10],104 % of control
same,T/C,[11],101 % of control
same,T/C,[18],96 % of control
NCCCCC1(CCCCN)OCCO1,T/C,[11],95 % of control
same,T/C,"endpoint: mean survival time, dose: 25.0 mg/kg/injection, schedule: Q04DX002 (ip), vehicle: saline",102 % of control
same,T/C,[18],102 % of control
same,T/C,"endpoint: mean survival time, dose: 50.0 mg/kg/injection, schedule: Q04DX002 (ip), vehicle: saline",95 % of control
same,T/C,[15],94 % of control
Nn1c2ccccc2c2ccccc21,T/C,"endpoint: mean survival time, dose: 75.0 mg/kg/injection, schedule: Q01DX001 (ip), vehicle: saline",98 % of control
same,T/C,"endpoint: mean survival time, dose: 150.0 mg/kg/injection, schedule: Q01DX001 (ip), vehicle: saline",106 % of control
